Experimental data taken from patent publication US9145415B2, “Nitrogen-containing heterocyclic compound or salt thereof” (FUJIFILM Corporation, priority 2012, dated 2015).
Read-outs that look alike come from different tables or passages of the source.

Tests used:
[1] = target: T1, human FLT3 protein (FLT3 (WT)) (Homo sapiens, UniProt P36888); assay: FLT3 inhibition test (FLT3 enzyme inhibition, time-resolved fluorescence of substrate peptide phosphorylation); type: biochemical; conditions: read-out: FLT3 (WT) enzyme inhibition activity
T1 construct: human FLT3 protein (intracellular region, 564 to 993 aa); GST; purchased Carna Biosciences; host or cells: baculovirus expression system
T1 sequence (P36888 564-993): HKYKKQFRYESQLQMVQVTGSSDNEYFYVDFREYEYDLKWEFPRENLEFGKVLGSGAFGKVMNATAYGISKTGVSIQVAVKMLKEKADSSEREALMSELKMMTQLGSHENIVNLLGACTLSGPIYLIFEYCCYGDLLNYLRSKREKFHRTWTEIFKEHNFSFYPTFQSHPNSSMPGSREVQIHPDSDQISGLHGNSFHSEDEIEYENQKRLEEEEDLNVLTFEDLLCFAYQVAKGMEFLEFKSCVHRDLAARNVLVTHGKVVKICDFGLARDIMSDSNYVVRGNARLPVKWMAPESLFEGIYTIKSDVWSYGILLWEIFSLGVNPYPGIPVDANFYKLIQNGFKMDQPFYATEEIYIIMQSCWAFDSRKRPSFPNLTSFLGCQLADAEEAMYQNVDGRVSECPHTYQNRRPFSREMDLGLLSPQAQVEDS
Summary of the method: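 Wild-type human FLT3 (1.2 μg) pre-incubated with compound 15 min at 25° C in 100 mM HEPES pH 7.5, 10 mM MgCl2, 25 mM NaCl, 1 mM DTT. Reaction started with substrate peptide and ATP (final 50 μM), run 30 min at 25° C; phosphorylation read by time-resolved fluorescence.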

Molm-13 cells = assay: Leukemia cell proliferation inhibition test (ATPlite), Molm-13; type: cell-based; conditions: Homo sapiens, read-out: MOLM13 cell proliferation inhibition effect
Summary of the method: (§1)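 Proliferation inhibition is quantified from total cellular ATP, measured by luciferase luminescence, after cells grow with compound for 72 hours. The GI50 is the concentration giving half the signal of the 0.1% DMSO control, fitted to a sigmoid curve from duplicate points.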

MV4-11 cells = assay: Leukemia cell proliferation inhibition test (ATPlite), MV4-11; type: cell-based; conditions: Homo sapiens, read-out: MV4-11 cell proliferation inhibition effect
Summary of the method: as §1

[2] = GST-fused human FLT3 (564 to 993 aa), ATP 50 μM
[3] = MOLM-13, 72 h, Molm-13, 72 hours culture, ATPlite, GI50 per method
[4] = MV4-11, 72 h, MV4-11, 72 hours culture, ATPlite, GI50 per method

| IC50 [1, 2] | IC50 (Molm-13 cells; [3]) | IC50 (MV4-11 cells; [4]) | IC50 ([1]; FLT3 (WT)) | IC50 (Molm-13 cells; MOLM-13, MOLM13 cell) | IC50 (MV4-11 cells; MV4-11, MV4-11 cell) | SMILES |
| --- | --- | --- | --- | --- | --- | --- |
| < 10 nM | 10 to 100 nM | < 10 nM |  |  |  | CC#CC(=O)N(C)[C@@H](C)C(=O)Nc1cccc(NC(=O)c2cnc(Nc3ccc(C(N)=O)cc3)nc2NCCC)c1 [Compound 3-11] |
| < 10 nM | 10 to 100 nM | < 10 nM |  |  |  | CCCNc1nc(Nc2cccc(F)c2)ncc1C#Cc1ccccc1CNC(=O)[C@H](C)N(C)C(=O)/C=C/CN(C)C [Compound 7-25] |
| < 10 nM | < 10 nM | < 10 nM |  |  |  | COCCCNc1nc(Nc2ccnc(F)c2)ncc1C#CCCCNC(=O)[C@H](C)N(C)C(=O)/C=C/CN(C)C [Compound 9-16] |
| < 10 nM | 10 to 100 nM | 10 to 100 nM |  |  |  | CCCNc1nc(Nc2ccc(C(N)=O)cc2)ncc1C(=O)Nc1cccc(NC(=O)[C@H](C)NC(=O)/C=C/CN(C)C)c1 [Compound 3-12] |
| < 10 nM | < 10 nM | < 10 nM |  |  |  | COc1ccc(Nc2nc(Nc3cccc(F)c3)ncc2C#CCCCNC(=O)[C@H](C)N(C)C(=O)/C=C/CN(C)C)cn1 [Compound 7-19] |
| < 10 nM | 10 to 100 nM | 10 to 100 nM |  |  |  | C=CC(=O)NCC(=O)NCCCNC(=O)c1cnc(NCCc2ccncc2)nc1NCCC [Compound 2-2, N-(3-(2-(acrylylamido)actamido)propyl)-4-(propylamino)-2-((2-(pyridin-4-yl)ethyl)amino)pyrimidine-5-carboxamide] |
| < 10 nM | < 10 nM | < 10 nM |  |  |  | CCCNc1nc(Nc2ccc(C#N)cc2)ncc1C#CCCCNC(=O)[C@H](COC)NC(=O)/C=C/CN(C)C [Compound 7-44] |
| < 10 nM | < 10 nM | 10 to 100 nM |  |  |  | C=CC(=O)N(C)CC(=O)NCCCNC(=O)c1cnc(NCCc2ccncc2)nc1NCCC [Compound 2-23] |
| < 10 nM | < 10 nM | < 10 nM |  |  |  | C=CC(=O)N(C)CC(=O)Nc1cccc(NC(=O)c2cnc(NCCc3ccncc3)nc2NCCC)c1 [Compound 1-3] |
| < 10 nM | < 10 nM | < 10 nM |  |  |  | C[C@@H](C(=O)NCCCC#Cc1cnc(Nc2ccc3cnn(C)c3c2)nc1NC1CC1)N(C)C(=O)/C=C/CN(C)C [Compound 10-58] |
| < 10 nM | 100 to 1000 nM | 100 to 1000 nM |  |  |  | CCCNc1nc(Nc2ccc(C#N)cc2)nc(C)c1C#CCCCNC(=O)[C@H](C)N(C)C(=O)/C=C/CN(C)C [Compound 19-1, (S,E)-N-(1-((5-(2-((4-cyanophenyl)amino)-4-methyl-6-(propylamino)pyrimidin-5-yl)-4-pentyn-1-yl)amino)-1-oxopropan-2-yl)-4-(dimethylamino)-N-methyl-2-butenamide] |
| < 10 nM | 10 to 100 nM | < 10 nM |  |  |  | CCCNc1nc(Nc2cccc(F)c2)ncc1C#Cc1cc(NC(=O)[C@H](C)N(C)C(=O)/C=C/CN(C)C)ccc1F [Compound 8-7] |
|  |  |  | < 10 nM | < 10 nM | < 10 nM | CNc1ncc(C#C[C@@H]2CCC[C@H](NC(=O)[C@H](C)N(C)C(=O)/C=C/CN(C)C)C2)c(Nc2ccc(F)cc2)n1 [Compound 21-37] |
|  |  |  | < 10 nM | < 10 nM | < 10 nM | COCCNc1nc(Nc2ccc(F)cc2)ncc1C#C[C@@H]1CCC[C@H](NC(=O)[C@H](C)N(C)C(=O)/C=C/CN(C)C)C1 [Compound 22-37] |
| < 10 nM | < 10 nM | < 10 nM |  |  |  | C[C@@H](C(=O)NCCC(C)(C)C#Cc1cnc(Nc2ccnc(F)c2)nc1NC1CC1)N(C)C(=O)/C=C/CN(C)C [Compound 9-20] |
| < 10 nM | < 10 nM | < 10 nM |  |  |  | COCCCNc1nc(Nc2ccc3c(cnn3C)c2)ncc1C#CCCCNC(=O)[C@H](C)N(C)C(=O)/C=C/CN(C)C [Compound 10-55] |
| < 10 nM | 100 to 1000 nM | 10 to 100 nM |  |  |  | CCCNc1nc(Nc2ccc(C(N)=O)cc2)ncc1C(=O)NCCCNC(C)(C)CNC(=O)/C=C/CN(C)C [Compound 3-24] |
| 100 to 1000 nM | 100 to 1000 nM | > 1000 nM |  |  |  | CCCNc1nc(Nc2cccc3c2cnn3C)ncc1C#CCCCNC(=O)[C@H](C)N(C)C(=O)/C=C/CN(C)C [Compound 21-5] |

| IC50 [1, 2] | IC50 (Molm-13 cells; [3]) | IC50 (MV4-11 cells; [4]) | IC50 ([1]; FLT3 (WT)) | IC50 (Molm-13 cells; MOLM-13, MOLM13 cell) | IC50 (MV4-11 cells; MV4-11, MV4-11 cell) | SMILES |
| --- | --- | --- | --- | --- | --- | --- |
| < 10 nM | < 10 nM | < 10 nM |  |  |  | C[C@@H](C(=O)NCCCC#Cc1cnc(Nc2ccc(C#N)cc2)nc1NCCCF)N(C)C(=O)/C=C/CN(C)C [Compound 10-29] |
| < 10 nM | < 10 nM | < 10 nM |  |  |  | C[C@@H](C(=O)NCCCC#Cc1cnc(Nc2ccc(F)nc2)nc1NCCCF)N(C)C(=O)/C=C/CN(C)C [Compound 10-34] |
| < 10 nM | < 10 nM | < 10 nM |  |  |  | CN(C)C/C=C/C(=O)N1CCC[C@H]1C(=O)NCCCC#Cc1cnc(Nc2ccc3[nH]ncc3c2)nc1NC1CC1 [Compound 10-74] |
| < 10 nM | < 10 nM | < 10 nM |  |  |  | CCCNc1nc(Nc2ccc3cnccc3c2)ncc1C(=O)Nc1cccc(NC(=O)[C@H](C)N(C)C(=O)/C=C/CN(C)C)c1 [Compound 6-9, (S,E)-N-(3-(2-(4-(Dimethylamino)-N-methyl-2-butenamido)propanamido)phenyl)-2-(isoquinolin-6-ylamino)-4-(propylamino)pyrimidine-5-carboxamide] |
| 10 to 100 nM | 100 to 1000 nM | 100 to 1000 nM |  |  |  | CCCNc1nc(Nc2cccc(F)c2)ncc1CNc1cccc(NC(=O)[C@H](C)N(C)C(=O)/C=C/CN(C)C)c1 [Compound 6-21] |
|  |  |  | < 10 nM | < 10 nM | < 10 nM | CCCNc1nc(Nc2cccc(-n3ccnn3)c2)ncc1C#CCCCNC(=O)[C@H](C)N(C)C(=O)/C=C/CN(C)C [Compound 22-20] |
| < 10 nM | < 10 nM | < 10 nM |  |  |  | CNc1nc(Nc2cccc(F)c2)ncc1C#C[C@H]1C[C@@H](NC(=O)[C@H](C)N(C)C(=O)/C=C/CN(C)C)C1 [Compound 13-13, (E)-4-(Dimethylamino)-N—((S)-1-(((1S,3R)-3-((2-((3-fluorophenyl)amino)-4-(methylamino)pyrimidin-5-yl)ethynyl)cyclobutyl)amino)-1-oxopropan-2-yl)-N-methyl-2-butenamide] |
| < 10 nM | < 10 nM | < 10 nM |  |  |  | CCCNc1nc(Nc2cccc(F)c2)ncc1C#CCCCNC(=O)[C@@H]1C[C@H](F)CN1C(=O)/C=C/CN(C)C [Compound 7-49] |
| < 10 nM | 10 to 100 nM | 10 to 100 nM |  |  |  | C=CC(=O)NCCOc1cccc(NC(=O)c2cnc(NCCc3ccncc3)nc2NCCC)c1 [Compound 2-20] |
| < 10 nM | < 10 nM | < 10 nM |  |  |  | CCCN(C)c1nc(Nc2ccnc(F)c2)ncc1C#CCCCNC(=O)[C@H](C)N(C)C(=O)/C=C/CN(C)C [Compound 9-10] |
| < 10 nM | 10 to 100 nM | < 10 nM |  |  |  | CCCNc1nc(Nc2ccc(C(N)=O)cc2)ncc1C#CCCCNC(C)(C)CNC(=O)/C=C/CN(C)C [Compound 8-10] |
| < 10 nM | < 10 nM | < 10 nM |  |  |  | C[C@@H](C(=O)NCCCC#Cc1cnc(Nc2ccc3[nH]ncc3c2)nc1NC1CC1)N(C)C(=O)/C=C/CN(C)C [Compound 10-72] |
| < 10 nM | < 10 nM | < 10 nM |  |  |  | C[C@@H](C(=O)NCCCC#Cc1cnc(Nc2cccc(F)c2)nc1NCC1CCOCC1)N(C)C(=O)/C=C/CN(C)C [Compound 10-7] |
| < 10 nM | 10 to 100 nM | < 10 nM |  |  |  | C[C@@H](C(=O)NCCCC#Cc1cnc(Nc2cccc(F)c2)nc1Nc1ccc(C#N)cc1)N(C)C(=O)/C=C/CN(C)C [Compound 7-14] |
| < 10 nM | 10 to 100 nM | < 10 nM |  |  |  | COCCCNc1nc(Nc2cccc(F)c2)ncc1C#CCCCNC(=O)[C@H](C)N(C)C(=O)/C=C/CN(C)C [Compound 10-1, (S,E)-4-(dimethylamino)-N-(1-((5-(2-((3-fluorophenyl)amino)-4-((3-methoxypropyl)amino)pyrimidin-5-yl)-4-pentyn-1-yl)amino)-1-oxopropan-2-yl)-N-methyl-2-butenamide] |
| < 10 nM | < 10 nM | < 10 nM |  |  |  | CNc1nc(Nc2ccc(F)cc2)ncc1C#CCCCNC(=O)[C@@H]1C[C@H](OC)CN1C(=O)/C=C/CN(C)C [Compound 7-82] |
| < 10 nM | 10 to 100 nM | < 10 nM |  |  |  | CN(C)C/C=C/C(=O)N(C)CC(=O)NCCCC#Cc1cnc(Nc2ccc(F)cc2)nc1N1CCOCC1 [Compound 10-17] |
| < 10 nM | < 10 nM | < 10 nM |  |  |  | C=CC(=O)N(C)CC(=O)NCCCNC(=O)c1cnc(Nc2ccc3cnccc3c2)nc1NCCC [Compound 6-6] |
